# Laboratory results: PubChem BioAssay AID372 (MTDP, 2006)
# Activity calls are given as the source filed them. Cut-off read from the data, not from the text of the source: active = inhibition above about 50%; inactive = the rest.
# Target: Gag-Pol polyprotein (Human immunodeficiency virus type 1 group M subtype B (isolate HXB2)) (UniProt P04585)
# Test: RNase H inhibition, HIV 1 Gag Pol polyprotein, FRET biochemical assay, screening (AID 372)
# Settings: HIV-1 RT RNase H, FRET RNA/DNA substrate fluorescence
row,Compound,IC50
1,O=C1NC(=S)N(c2ccc(Cl)cc2)C(=O)/C1=C/c1ccc(Br)o1,1.7 µM
2,O=C(NC(=S)Nc1cc(-c2nc3ccccc3s2)ccc1Cl)c1ccc(F)cc1,9.1 µM
3,NC(=O)c1c(N)sc2c1CCCCC2,2 µM
4,O=C1NC(=O)/C(=C/c2ccc(-c3ccc(O)c(C(=O)O)c3)o2)S1,4.2 µM
5,Cc1sc(NC(=O)c2ccc3c(c2)OCO3)c(C(N)=O)c1C,inactive
6,Cc1cc(Cl)ccc1OCC(=O)Nc1sc(C)c(C)c1C(N)=O,10.7 µM
7,Cc1sc(NC(=O)C2CC3CCC2C3)c(C(N)=O)c1C (stereo unspecified),13 µM
8,Cc1sc2nc(-c3ccc([N+](=O)[O-])cc3)[nH]c(=O)c2c1C,0.55 µM
9,COc1ccc(-c2c(C#N)c(N)nc(SCC(=O)c3ccc(O)c(O)c3)c2C#N)cc1,1.8 µM
10,O=C1NC(=S)N(c2ccc(Cl)cc2)C(=O)/C1=C\C=C\c1ccccc1[N+](=O)[O-],3.3 µM
11,Cc1ccc(C(=O)Nc2sc(C)c(C)c2C(N)=O)cc1,0.6 µM
12,Cc1ccc(C)n1-c1ccc(O)c(C(=O)O)c1,9 µM
13,Cc1ccc(S(=O)(=O)N=C2C=CC(=O)C=C2)c(C)c1,1.9 µM
14,O=c1oc2ccccc2c(O)c1/C=C1\C=Nc2ccccc21,3.2 µM
15,CCOc1ccc(N2C(=O)/C(=C/c3ccc(Br)o3)C(=O)NC2=S)cc1,2.1 µM
16,O=C1C=CC(=O)C(c2cc(Cl)ccc2Cl)=C1,2.1 µM
17,C=CCN1C(=O)/C(=C\c2ccc([N+](=O)[O-])o2)C(=O)NC1=S,75 µM
18,O=c1[nH]c(=S)n(-c2ccccc2F)c(O)c1C=C1C=CC=N1,2.3 µM
19,Cc1sc(NC(=O)c2ccco2)c(C(N)=O)c1C,3.2 µM
20,Cc1ccc(-c2c(C#N)c(SCC(=O)c3ccc(O)c(O)c3)nc3c2CCCC3)o1,6.5 µM
21,Cc1sc(NC(=O)Cc2ccccc2)c(C(N)=O)c1C,8 µM
22,NC(=O)c1c(NC(=O)CCc2ccccc2)sc2c1CCCCCC2,1.5 µM
23,Cc1ccc(C)n1-c1ccc(Br)cc1C(=O)O,32 µM

row,Compound,IC50
1,NC(=O)c1c(NC(=O)COc2ccccc2)sc2c1CCCCC2,inactive
2,Cc1ccc(N2C(=O)/C(=C/c3ccc(O)c(O)c3)SC2=S)cc1C,12 µM
3,CCOc1cccc(N2C(=O)/C(=C/c3cn(CC(=O)OC)c4ccccc34)C(=O)NC2=S)c1,5.5 µM
4,O=C1C(Cl)=C(NC(=O)c2ccccc2)C(=O)C(Cl)=C1NC(=O)c1ccccc1,4 µM
5,COc1ccc(N2C(=O)/C(=C\c3cn(CC(=O)Nc4ccccc4)c4ccccc34)C(=O)NC2=S)cc1,5 µM
6,O=C1/C(=C/c2ccc(O)c(O)c2)SC(=S)N1C1CCCCC1,5.7 µM
7,COc1ccc(NC(=O)c2c(N)sc(-c3ccccc3)c2C)cc1,7 µM
8,Cc1cc(I)c2c(c1)C1C=CCC1C(C(=O)O)N2 (stereo unspecified),100 µM
9,O=C(Oc1ccccc1)Oc1c(Cl)cc2oc(=O)sc2c1Cl,19 µM
10,COc1cc(/C=N\c2sc3c(c2C(=O)NCc2ccccc2)CCCC3)cc(Cl)c1O,2.1 µM
11,N#C/C(=C\Nc1ccc(S(=O)(=O)Nc2nccs2)cc1)c1nc(-c2ccc(Cl)cc2)cs1,4.1 µM
12,CC(C)OC(=O)c1cc(O)c(O)c(O)c1,1.3 µM
13,Nc1ccc(S(=O)(=O)O)c2cccc(O)c12,10 µM
14,Cc1onc(-c2ccccc2)c1C(=O)Nc1sc(C)c(C)c1C(N)=O,inactive
15,Cc1ccc(C)n1-c1ccc(SCC(=O)O)cc1,8 µM
16,O=C(O)C1Nc2c(Cl)cc(Cl)cc2C2C=CCC12 (stereo unspecified),72 µM
17,O=C1C=CC(=NS(=O)(=O)c2ccc(Cl)c([N+](=O)[O-])c2)C=C1,1.5 µM
18,COc1ccccc1N=C(NOCc1ccc(Cl)cc1Cl)c1nonc1N,1.7 µM
19,O=C1NC(=S)N(c2ccccc2F)C(=O)/C1=C/c1ccc(I)o1,6.7 µM
20,Cc1sc(NC(=O)c2cccc([N+](=O)[O-])c2)c(C(N)=O)c1C,inactive
21,O=C(Cc1ccccc1Cl)c1ccc(O)c(O)c1O,2 µM
22,COc1ccc(-c2nc3sc(-c4ccc(OC)cc4)nc3s2)cc1,1.9 µM
23,COc1ccc(C(=O)NC(=S)Nc2ccc3nn(-c4ccc(C)c(Cl)c4)nc3c2)cc1[N+](=O)[O-],17 µM
